In patent publication US11197826B2, “Oil-in-water emulsions including retinoic acid” (NOVARTIS AG, priority 2015, dated 2021):

Legend:
[1] = tested on: CCR9 on CD4+ T-cells expressing the DO-11.10 T-cell receptor; assay: Adoptive T-cell transfer with fingolimod: CCR9 expression and proliferation of DO-11.10 CD4+ T-cells in draining lymph nodes; type: in vivo, mice; details: FACS, MF59-adjuvanted ovalbumin plus retinoic acid versus MF59 plus plain vehicle
Method: Reference describes experimental protocols for studying the homing of T-cells in mice who receive retinoic acid. In brief, T-cells specific for test antigens (in the present case, ovalbumin) are adoptively transferred into mice and their behaviour in response to specific treatments is studied. This general experimental procedure was used to assess the effect of MF59 and retinoic acid on CCR9 expression in T-cells, and on their in vivo migration.
Mice were injected intravenously with 2×10^6 CD4^+ T-cells which react to ovalbumin peptides (DO-11.10 cells). These cells were labelled with CFSE before being administered. At around the same time they were given either retinoic acid or a plain vehicle. The next day they received MF59-adjuvanted ovalbumin, and the next day they again received RA or plain vehicle, plus fingolimod (which blocks the egress of lymphocytes from lymph nodes). A few days later their draining lymph nodes were drained and CD4^+ T-cells expressing the DO-11.10 T-cell receptor were tested for CCR9 expression by FACS. The CFSE label was used to trace cell proliferation.

[2] = Mucosal antibody responses after MF59-adjuvanted immunisation; type: in vivo, mice
Method: To assess antibody responses mice were injected with 3 doses of either ovalbumin or H56 (a […] antigen) on days 0, 21, and 42, adjuvanted with MF59. The day before and after each immunization one group of mice were given retinoic acid whereas control mice received a plain vehicle instead. Serum IgG and vaginal wash IgA antibody responses were assessed at day 56. IgA-secreting cells were also measured in the bone marrow.

[3] = cited from earlier work

## CC1=C(/C=C/C(C)=C/C=C/C(C)=C/C(=O)O)C(C)(C)CCC1 [retinoic acid]
[1]
  number of CCR9-positive cells, fold higher: about 5 ×
[2]; bone marrow, H56 adjuvanted with MF59, retinoic acid versus plain vehicle
  proportion of IgA-secreting cells, fold higher, H56: around 12 ×
[2]; bone marrow, ovalbumin adjuvanted with MF59, retinoic acid versus plain vehicle
  proportion of IgA-secreting cells, fold higher, ovalbumin: about 7 ×
[2]; day 56, 3 MF59-adjuvanted doses, plain vehicle essentially zero
  antigen-specific IgA titres in vaginal washes: about 1250
[3]
  solubility in oil: soluble
  solubility in water: sparingly soluble
